This data set can be described thus: in vitro. As to conditions: human, hela cells, % viability.

As a reminder, the viability is a read-out of living cells in per cent, often relative to untreated cells. As to `CCCN1C[C@H](NC(=O)C2CC2)[C@@H](c2ccc(OC)cc2)C1` [CBK282518], the viability at 28.5 h, 10 µM was 116%.
The same measure, in the same setting: the result for `Cc1ccc(N(CC(=O)Nc2ccccc2C(N)=O)S(=O)(=O)c2ccccc2)cc1C` [CBK265246] reads 94.4%; that for `Cn1c2c(c3ccccc31)C(=O)NCC2` [CBK003517], 89%.
In the case of `Cc1ccccc1N1C(=O)/C(=N\Nc2ccc(S(=O)(=O)O)cc2)C(=O)NC1=S` [CBK018165], the viability at 28.5 h, 10 µM (bulk resorufin, single well) worked out at 97.7%.
On to `CN(C)CCN(C)C(=O)c1cc(Br)cnc1N1CCN(C(=O)c2ccco2)CC1` [CBK076514], for which the viability at 28.5 h, 10 µM stood at 93.8%.
Same read-out and setting: the result for `Cc1cc(=O)n2ncnc2n1COCCO` [CBK262919] reads 97.4%; that for `c1ccc(Cc2nn3c(COc4ccccc4)nnc3s2)cc1` [CBK267163], 88%.
As to `COCCN(Cc1ccncc1)C(=O)c1cnc2ccnn2c1C` [CBK306965], the viability at 28.5 h, 10 µM was 92.3%.
For `O=C(O)CCCC(=O)N(c1ccccc1)c1ccccc1` [CBK286901], the viability at 28.5 h, 10 µM was 80.2%.
The same measure, in the same setting: the same measure for `CC(=O)c1ccc2c3c(cccc13)CC(N(C)C)C2` (stereo not drawn) [CBK005691S]: 95.8%; for `Cc1ccc(NC(=S)N2CCCC2C(=O)O)c(C)c1` (stereo not drawn) [CBK007148]: 79.3%; for `O=C(CSc1nccn1C1CC1)Nc1ccc(CN2CCOCC2)cc1` [CBK306071]: 98.9%.
Still for that read-out and setting: the result for `Nc1nc(-c2ccc3c(c2)CCC(=O)N3)cs1` [CBK086133] reads 80.8%.
The same measure, in the same setting: the same measure for `CS(=O)(=O)Nc1cc2ccccc2c(-c2cccnc2)n1` [CBK085747]: 108%; for `Cc1ccc(S(=O)(=O)NC2=NCN(CCOC(=O)c3ccc([N+](=O)[O-])cc3)CN2)cc1` [CBK265235]: 92.8%; for `CCC(=O)NCc1ccc(-c2cc(CN(C)C)n(C)n2)cc1` [CBK281668]: 103%.
On to `Cc1nc(CN2CCN(C(=O)C3C4CCCCC43)CC2)cs1` (stereo not drawn) [CBK281607], for which the viability at 28.5 h, 10 µM is 93.8%.
The same measure, in the same setting: the same measure for `CCOc1cc(S(=O)(=O)NCc2ccccn2)ccc1Cl` [CBK266817]: 99.2%; for `O=C1O[C@@H](CCl)CN1c1ccc(N2CCOCC2)c(F)c1` [CBK017613]: 105%; for `Sc1nnc(-c2ccncc2)n1/N=C/c1cccnc1` [CBK265336]: 96.6%.
In the case of `O=C(O)CCCC(=O)NCCc1ccc(Cl)cc1Cl` [CBK296930], the viability at 28.5 h, 10 µM came to 88.8%.
In the case of `COc1cc(CNc2cncc(-c3ccc(F)cc3F)n2)cc(OC)c1OC` [CBK065826], the viability at 28.5 h, 10 µM is 115%.
In the case of `N#Cc1ccc(CN2CCN(S(=O)(=O)c3ccc(-c4ccccc4)cc3)CC2)cc1` [CBK062752], the viability at 28.5 h, 10 µM was 105%.
Same read-out and setting: the same measure for `Cc1ccc2[nH]c(-c3cccc(NC(=O)c4cccc(CN5CCCC5=O)c4)c3)nc2c1` [CBK285838]: 85.8%.
For the compound `NC1=NN(c2ccccc2)C(=O)C1` [CBK144946], the viability at 28.5 h, 10 µM worked out at 97.3%.
Still for that read-out and setting: the result for `CC(=O)NCCCCCC(=O)Nc1ccc(Cl)cn1` [CBK091341] reads 92.3%; that for `O=S(=O)(Nc1ncccn1)c1ccc(NC(=S)Nc2ccc3c(c2)OCO3)cc1` [CBK267046], 89%.
For `C=CCNCc1cc2c(C)nn(-c3ccccc3)c2[nH]c1=O` [CBK282898], the viability at 28.5 h, 10 µM is 88.7%.
As to `CCCC(=O)c1ccc(S(=O)(=O)N2CCCN(Cc3ccc(F)c(C#N)c3)CC2)cc1` [CBK062910], the viability at 28.5 h, 10 µM is 114%.
On the same count and under the same terms, the same measure for `CCCCCNC(=O)NCCC1=CCCCC1` [CBK043796]: 96.9%; for `Cc1nc(C(=O)N(CCO)Cc2ccccc2)cs1` [CBK304810]: 105%.
For `COc1ccc(Br)cc1S(=O)(=O)Nc1ccc(C(=O)O)cc1` [CBK034047], the viability at 28.5 h, 10 µM was found to be 106%.
Same read-out and setting: the result for `O=C(O)[C@@H]1CCCN1c1nc(O)cc(C(F)(F)F)n1` [CBK002865] reads 81.3%; that for `O=C(CCCc1ccccn1)N(Cc1ccccn1)C1CCCC1` [CBK282033], 99.9%; that for `Cc1ccncc1C(=O)N1CCc2ccccc21` [CBK200400], 109%.
Still for that read-out and setting: the result for `O=C(Nc1ccccc1)N(Cc1nc(-c2ccccc2)no1)C1CCCCC1` [CBK269830] reads 93.2%; that for `CCCn1ccnc1CN1CCCC(CC2CC2)(C(=O)O)C1` (stereo not drawn) [CBK307205], 100%; that for `CCn1c(C(CC(C)C)NC(=O)c2ccco2)nc2cccnc21` (stereo not drawn) [CBK283523], 94.3%.
With `O=C(Cc1cccc2ccccc12)Nc1ccccc1C(=O)O` [CBK266325], the viability at 28.5 h, 10 µM came to 100%.
As for `COc1ccc(Nc2cc(-c3cc(OC)c(OC)c(OC)c3)ncn2)c(OC)c1` [CBK090759], the viability at 28.5 h, 10 µM was 95.4%.
Same read-out and setting: the same measure for `CC(=O)C(C(=O)Nc1ccc(F)cc1)C(c1cccc2ccccc12)C(C#N)C#N` (stereo not drawn) [CBK262081]: 90.4%.
On the same count and under the same terms, the same measure for `O=C(O)CSc1nccn1Cc1ccccc1` [CBK262215]: 103%; for `CC(=O)N1C[C@@H]2OCC(=O)N(Cc3ccccn3)[C@@H]2C1` [CBK289245]: 95.8%; for `CCc1nn(CC(=O)NC2CC2)c(=O)c2cc3sc(C)cc3n12` [CBK284099]: 91.9%.
Still for that read-out and setting: the same measure for `Cc1cc2c(cc1S(=O)(=O)NCc1ccccc1)NC(=O)CO2` [CBK270159]: 85.2%; for `O=C1N[C@@H]2CCN(C(=O)COc3cccnc3)C[C@@H]2CCCCCOc2ccccc21` [CBK292037]: 94.6%; for `O=C(NC(Cc1ccccc1)C(=O)O)c1ccc(C#CC2(O)CCCCC2)cc1` (stereo not drawn) [CBK267702]: 93%.
In the case of `CS(=O)(=O)c1cc(Br)cc(C(=O)NCCNc2cnccn2)c1F` [CBK305731], the viability at 28.5 h, 10 µM turned out to be 85.8%.
Same read-out and setting: the result for `COc1ncc(-c2cncc(N3CCN(CCO)CC3)n2)c(OC)n1` [CBK065146] reads 84.8%.
Consider `COc1ccc(CC(=O)N2CCC(C#N)(c3ccccc3)CC2)c(OC)c1` [CBK091388], for which, for the setting “bulk resorufin, single well”, the viability at 28.5 h, 10 µM is 91.4%.
Regarding `COc1ccc(C2CC(Cn3cc(C(C)=O)c(=O)[nH]c3=O)ON2C)cc1` (stereo not drawn) [CBK019386], the viability at 28.5 h, 10 µM was 95.7%.
Same read-out and setting: the same measure for `CC(C)c1ccc(C(C)NC(=O)c2ccc(=O)n(CC(=O)N3CCCCC3)c2)cc1` (stereo not drawn) [CBK286084]: 88.7%; for `O=C1NC2(CCN(C(=O)C3CCCC3)CC2)Nc2ccccc21` [CBK283962]: 94.9%; for `CCOC(=O)c1[nH]c2ccccc2c1NS(=O)(=O)c1ccc(OC)c(OC)c1` [CBK047421]: 86%.
Still for that read-out and setting: the result for `COc1ccc(Br)cc1S(=O)(=O)Nc1c(C(=O)O)[nH]c2ccccc12` [CBK049887] reads 97.5%.
As to `COc1ccc(CN2CC(C(=O)O)C2)cc1Cn1cncn1` [CBK307284], the viability at 28.5 h, 10 µM was found to be 110%.
Turning to `COc1cccc(CC(=O)N2CCC(Cc3ccccc3-c3cccs3)(C(N)=O)CC2)c1` [CBK285908], the viability at 28.5 h, 10 µM is 112%.
With `CC(C)(C)C(=O)N1CCC(c2nnc(-c3ccsc3)o2)CC1` [CBK283378], the viability at 28.5 h, 10 µM came to 89.5%.
On the same count and under the same terms, the same measure for `CCc1c(SCC(=O)O)nc2ccccc2c1C` [CBK286928]: 95.8%; for `O=C(Cn1ccc(=O)[nH]c1=O)Nc1ccc(OCC(F)(F)F)cc1` [CBK305879]: 98%.
Still for that read-out and setting: the result for `NC(=O)c1c(NC(=O)c2ccc3ncsc3c2)sc2c1CCCC2` [CBK287369] reads 94.4%; that for `O=C(c1ccco1)N1C2CCC1Cn1c(nc3ccccc3c1=O)C2` (stereo not drawn) [CBK284452], 89.1%.
The same measure, in the same setting: the result for `Cc1cc(/C=C/C2=CCN(C)CC2)c(C)n1C1CC1` [CBK283858] reads 85.9%; that for `COC(=O)c1ccc(NC(=O)CN2CCC(C(N)=O)(N3CCCCC3)CC2)cc1` [CBK268275], 95.5%.
On to `COc1ccc(Br)c(C(=O)Nc2cc(N3CCNCC3)c3occc3c2)c1` [CBK061757C], for which the viability at 28.5 h, 10 µM was 115%.
On the same count and under the same terms, the same measure for `Clc1ccc(SCCCNCCN2CCOCC2)cc1` [CBK268603C]: 90.3%.
Turning to `O=C(c1nc2ccccc2[nH]1)N1CCC(F)CC1` [CBK200278], the viability at 28.5 h, 10 µM worked out at 90.3%.
On the same count and under the same terms, the same measure for `CC(C)C(=O)Nc1sc2c(c1C(=O)NCc1cccnc1)CCC2` [CBK306144]: 80.3%.
For the compound `COCCOc1nc2ccccc2nc1C` [CBK058489], the viability at 28.5 h, 10 µM is 103%.
For `COc1ccc(NC2=C(NCCO)C(=O)c3ccccc3C2=O)cc1` [CBK264756], the viability at 28.5 h, 10 µM came out at 102%.
Same read-out and setting: the result for `O=C(NC1CCCCC1)N[C@H]1CO[C@H]2[C@@H]1OC[C@@H]2Nc1nccc(C2CCCC2)n1` [CBK289531] reads 82.7%.
On the same count and under the same terms, the result for `CCc1nc(CN2CCCC(NCc3cccc(C(N)=O)c3)C2)no1` (stereo not drawn) [CBK306254] reads 87.2%; that for `COc1ccc(C2CC(c3cccc(Br)c3)Nc3ncnn32)cc1OC` (stereo not drawn) [CBK294474], 82.7%; that for `COc1ccc([C@@]23CC[C@@H](NC(=O)Nc4ccc(Cl)c(F)c4)C[C@@H]2N(C(C)C)CC3)cc1OC` [CBK056852T], 99.2%.
The same measure, in the same setting: the same measure for `Cc1cccc2c(C(=O)OCC(=O)c3ccc([N+](=O)[O-])cc3)cc(-c3ccc(Cl)cc3)nc12` [CBK264088]: 94.5%.
As to `O=C(Nc1nc(-c2ccccc2)ns1)c1ccncc1` [CBK113234], the viability at 28.5 h, 10 µM is 81.6%.
Regarding `COc1cccc(OCc2cnc(-c3ccc(Cl)cc3)c(-c3cccc(CNC(C)=O)c3)c2)c1` [CBK165225], the viability at 28.5 h, 10 µM stood at 90.5%.
The same measure, in the same setting: the result for `O=C(O)C1CCN(C(=O)CSc2nc3ccccc3o2)CC1` [CBK286557] reads 91.6%.
Regarding `CCn1c(CC2CCN(C(=O)CCCn3cnnn3)CC2)nn(C)c1=O` [CBK306537], the viability at 28.5 h, 10 µM stood at 102%.
As for `CN1CCOCC(CNC(=O)c2ccc(-c3cnc(N)nc3)cc2)C1` (stereo not drawn) [CBK307119], the viability at 28.5 h, 10 µM is 100%.
The same measure, in the same setting: the result for `COC(=O)CCc1ccc(S(=O)(=O)N2CCCN(Cc3cc(F)c(F)c(F)c3)CC2)cc1` [CBK062998] reads 103%.

The values are drawn from publication PMC12040169 (PLOS Biology, 2025).
